Assay results published in PubChem BioAssay (NCI).
Several values for one entry are separate records, joined by “and”; a condition that tells them apart may be missing. Identical values can stand only once.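 48-hour exposure; five concentrations; linearly interpolated endpoints. The concentration for 50% growth inhibition is given as GI50. TGI denotes the concentration required for complete inhibition of growth.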

Legend:
Experiment in all cases: NCI anticancer screen, dose series, 48 h
[1] = test system: A549 NSCLC
[2] = test system: UACC-62 melanoma
[3] = test system: MALME-3M melanoma
[4] = test system: NCI-H460 lung
[5] = test system: NCI/ADR-RES ovarian
[6] = test system: T-47D breast
[7] = test system: SF-295 CNS
[8] = test system: MOLT-4 leukemia
[9] = test system: M14 melanoma
[10] = test system: SR leukemia

SMILES | GI50 [1] [µM] | TGI [1] [µM] | GI50 [2] [µM] | TGI [2] | GI50 [3] [µM] | TGI [3] | GI50 [4] [µM] | TGI [4] [µM] | GI50 [5] [µM] | TGI [5] [µM] | GI50 [6] [µM] | TGI [6] [µM] | GI50 [7] [µM] | TGI [7] [µM] | GI50 [8] [µM] | TGI [8] [µM] | GI50 [9] [µM] | TGI [9] [µM] | TGI [10] [µM] | GI50 [10] [µM]
C=CCCCc1ccc(C(O)CCCCCCCCCCCC)o1 (configuration not stated) | 30.4 | 96.3 | 17.7 | 43 µM | 26 | 72.1 µM | 22 | 60.7 | 17.4 | 34.2 | 15.1 | 34.6 | 18.2 | 46.6 | 19.6 | 58.8 | 18.9 | 38.9 |  | 
Cc1c(Sc2ccccc2)[n+](=O)c2cc(Cl)c(Cl)cc2n1[O-] | > 100 | > 100 | > 100 | > 100 µM |  |  | > 100 | > 100 | > 100 | > 100 | 36.2 | > 100 | > 100 | > 100 | 15 | 33.3 | 46.8 | > 100 |  | 
CCCCCCC(/C=N/O)C(C)(O)CCC (configuration not stated) |  | > 100 |  | > 100 µM |  | > 100 µM |  | > 100 |  |  |  |  |  | > 100 |  | > 100 |  | > 100 |  | 
O=C(O)C1=C(C(=O)Nc2ccc(NC(=O)C3=C(C(=O)O)C4C=CC3C4)cc2)C2C=CC1C2 |  | > 100 |  | > 100 µM |  | > 100 µM |  | > 100 |  |  |  |  |  | > 100 |  | > 100 |  | > 100 | > 100 | 
Nn1c(N=Nc2c(O)[nH]c3c(Cl)cc(Cl)cc23)n[nH]c1=S |  | > 100 |  | > 100 µM |  | > 100 µM |  | > 100 |  |  |  |  |  | > 100 |  | > 100 |  | > 100 | > 100 | 
O=C1c2nc3n(c2C(=O)c2c1nc1n2CCC1)CCC3 | 5.11 | 18.1 | 2.21 | 5.5 µM and 3.65 µM | 2 | 3.54 µM and 2.17 µM | 3.89 | 6.24 |  |  |  |  | 6.72 | 17.9 |  | > 67.6 | 4.88 | 4.65 | > 40.6 | 3.58
C/C=C(\C)C(=O)N[C@H]1C(O)C[C@]2(C)C3CC[C@@]4(C)C(CC[C@@H]4C(C)N(C)C)C3CCC2C1O (some centres not stated) | 9.54 | 33.6 | 2.18 | 4.54 µM | 2.6 | 7.47 µM | 2.07 | 4.59 | 18.4 | > 75.5 | 2.91 | 17.7 | 8.83 | 29 | 4.06 | 17.2 | 2.02 | 3.88 |  | 
COC(=O)C1=C(c2ccc3c(c2)OCO3)OC(c2cc(OC)c(OC)c(OC)c2)C1 (configuration not stated) |  | > 100 |  | 19.2 µM |  | > 100 µM |  | > 100 |  |  |  |  |  | > 100 |  | > 100 |  | 84.1 | > 100 | 
O=C(O)c1ccccc1NC(=O)C1CCCCC1 |  | > 100 |  | > 100 µM |  | > 100 µM |  | > 100 |  |  |  |  |  | > 100 |  | > 100 |  | > 100 |  | 
COC(=O)C1=CC2OC1(C)CCC2=O (configuration not stated) |  | > 100 |  |  |  | > 100 µM |  | > 100 |  |  |  |  |  | > 100 |  | > 100 |  | > 100 | > 100 | 
CN1C(Cl)=NS(=O)(=O)c2ccccc21 |  | > 100 |  | > 100 µM |  |  |  | > 100 |  | > 100 |  | > 100 |  | > 100 |  | > 100 |  | > 100 | > 100 | 
COC(=O)[C@@H](C)C[C@H](Cc1ccccc1)NC(=O)c1csc([C@@H](C[C@H](C(C)C)N(C)C(=O)[C@H](C)NC(=O)[C@H]2CCCCN2C)OC(C)=O)n1 | 8.67 | > 25 | 1.27 | > 25 µM |  |  | 1.18 | > 25 | > 25 | > 25 |  |  | 3.95 | > 25 | 2.22 | > 25 | 0.859 | 11.3 | > 25 | 0.452
COc1ccc2nc(NC(=O)C(=O)C(C#N)c3ccc(Cl)c(Cl)c3)sc2c1 (configuration not stated) |  | > 100 |  | > 100 µM |  | > 100 µM |  | > 100 |  |  |  |  |  | > 100 |  |  |  | > 100 |  | 
O=C1NC(=O)C2C1N(Cc1ccccc1)C(=O)N2Cc1ccccc1 (configuration not stated) |  | > 100 |  | > 100 µM |  | > 100 µM |  | > 100 |  |  |  |  |  | > 100 |  | > 100 |  | > 100 | > 100 | 
CC1=CC(=O)N(c2c(C)cccc2Cl)C(C)N1 (configuration not stated) |  | > 100 |  | > 100 µM |  | > 100 µM |  | > 100 |  |  |  |  |  | > 100 |  | > 100 |  | > 100 |  | 
O=[N+]([O-])c1ccc(Cl)cc1C1SCc2nc3ccccc3n21 (configuration not stated) |  | > 100 |  | > 100 µM |  | > 100 µM |  | 23.4 |  |  |  |  |  | > 100 |  | > 100 |  | > 100 |  | 
COc1ccc2c(c1OC)C(=O)c1cnccc1C2=O |  | > 100 |  | > 100 µM |  | > 100 µM |  | > 100 |  |  |  |  |  | > 100 |  | > 100 |  | > 100 | > 100 | 
O=C(CC1C(=O)Nc2ccccc2S1=O)Nc1ccc(Cl)cc1 (configuration not stated) |  | > 100 |  | > 100 µM |  | > 100 µM |  | > 100 |  |  |  |  |  | > 100 |  | > 100 |  | > 100 | > 100 | 
COc1ccc(OC)c(Nc2nc(-c3c(C)nc4sccn34)cs2)c1 | > 100 | > 100 | 51.8 | > 100 µM | > 100 | > 100 µM | > 100 | > 100 | 15 | > 100 | 5.43 | > 100 | 41.4 | > 100 | > 100 | > 100 | > 100 | > 100 |  | 
O=C1C2Nc3ccccc3SC2C(=O)N1c1ccccc1C(F)(F)F (configuration not stated) |  | > 100 |  | > 100 µM |  | > 100 µM |  | > 100 |  |  |  |  |  | 46.2 |  | > 100 |  | 75.8 | > 100 | 
